Reference: patent publication EP3991729A1, “USE OF AMLEXANOX IN PREPARING ANTI-HEPATITIS VIRUS DRUG” (Marine Biomedical Research Institute Of Qingdao Co., Ltd., priority 2019, dated 2020)

Experiments:
hepatitis B virus [1] = test: HBV transgenic mouse model, serum HBsAg by ELISA; assay type: in vivo, male C57BL/6-HBV transgenic mice; settings: 48 mg/kg intragastric once daily for 35 days, Figure 18
Protocol: Ten male C57BL/6-HBV transgenic mice (provided by Beijing Vitalstar Biotechnology Co., Ltd.) aged six weeks were randomly divided into two groups (control group, n=5; administration group, n=5).
Route of administration: Intragastric administration, 1mL sterile syringe was used for administration.
Dosing frequency: The drug was administered once daily for 35 consecutive days, with free access to food and water.
Dose-volume: 10 mL/kg. The dose-volume for each animal was determined based on the most recent body weight before administration.
The serum was separated and diluted 5000 times with PBS, respectively. The ELISA kit detected the concentration of HBV surface antigen (HBsAg). The OD value at 450 nm was measured on a microplate reader.
The inhibition rate was calculated according to the following formula: Inhibition rate = [(OD450controlwell−OD450dosewell)/OD450 control; well] × 100% [formula]

[2] = tested on: HepG2, HCT-116, Hela, A549, MCF7, MKN45, THP-1, Huh7, and 293 cells; test: Cytotoxicity test, MTT assay, summary over the nine kinds of cells; assay type: cell-based; settings: 72h
Protocol: […]. Various cells in the logarithmic growth phase were seeded in 96-well plates at 6,000 cells/well and cultured for 24h. […]. The dosage of DMSO in the solvent control group was based on the maximum dose of 0.1% used in the test group, with four duplicate wells for each concentration. Cells were treated with the drug for 72h and then added with 20µL 5 mg/mL MTT, cultured at 37°C for 4h, after added 100 µ L triple solution (10% SDS, 5% isobutanol, 12 mM hydrochloric acid), 96-well cell culture plate was placed in an incubator containing 5% CO2 at 37 ± 1°C overnight. OD value at 570nm was measured on a microplate reader.
The inhibition rate of tumor cell growth was calculated according to the following formula: Inhibition rate(%) = [(OD570controlwell−OD570dosewell)/OD570controlwell] × 100. [formula]

hepatitis B virus [3] = test: Mouse venous hypertension model (genotype A), serum HBsAg by ELISA, dose groups (Example 12); settings: dose higher than 50 mg/day (converted adult dose), once a day oral gavage, seven days of administration, Figure 15
Protocol: Six-week-old male C57 mice were rapidly injected with 10µg/mouse of viral genomic DNA (genotype A) by tail vein injection in a short period. Viral infection was established using a venous hypertension model and randomly divided into groups. […] At the same time, a blank control was set up, and oral administration in uninfected mice was equivalent to the model group.
On days 1, 3, and 7 of administration, an appropriate amount of blood was collected from the tail vein of mice in each group. On day 9, the remaining peripheral blood was collected after the mice were sacrificed. All blood samples were centrifuged to obtain serum, divided into two portions. One was used to detect the concentration of HBsAg by ELISA, and the other was used to detect the enzyme activity of alanine aminotransferase (ALT) by alanine aminotransferase kit (colorimetric method) (Nanjing Jiancheng Bioengineering Institute).

hepatitis B virus [4] = test: HBV core antigen (HBeAg) in culture supernatant of HepAD38 cells, ELISA; assay type: cell-based; settings: 16µM to 2µM, HepAD38, 24h to 144h, Figure 14
Protocol: A solvent-only control group (DMF) was also set up. Three replicate wells were set up for all experiments. 500µL of culture supernatant was taken at 24h, 48h, 72h, 96h, and 144h after adding the test article for ELISA to detect HBV core antigen (HBeAg) concentration.

[5] = tested on: subtype A hepatitis B virus; test: Mouse venous hypertension model (genotype A), HBeAg in peripheral blood by ELISA; assay type: in vivo, Wild-type mice (C57/B6); settings: twice a day, oral gavage, 9th day after infection, Figure 8
Protocol: On the 9th day after infection, about 100µl of blood was harvested from each animal, serum was separated, and the concentration of HBeAg in peripheral blood was measured by ELISA.

hepatitis B virus [6] = test: Mouse venous hypertension model (genotype B), HBsAg in peripheral blood by ELISA; assay type: in vivo, Wild-type mice (C57/B6)
Protocol: . On the 9th day after infection, about 100µl/mouse of blood was harvested from the tail to separate serum, and the concentration of HBsAg in peripheral blood was detected by ELISA. The OD value at 450nm was measured on a microplate reader.
. On the 9th day after infection, about 100µl of blood was harvested from each animal, serum was separated, and the concentration of HBsAg in peripheral blood was measured by ELISA.

hepatitis B virus [7] = test: Mouse venous hypertension model (genotype B), HBV genomic DNA in liver by fluorescence quantitative PCR; assay type: in vivo, Wild-type mice (C57/B6); settings: 50 mg/kg/day oral gavage, 11th day after infection, Figure 5
Excerpt: . On the 11th day after infection, the mice were sacrificed, the livers of the mice were isolated, DpnI was transferred to exclude source DNA, and HBV genomic DNA in the livers of the mice was detected by fluorescence quantitative PCR (n=5).

hepatitis B virus [8] = test: HBV replication in HepAD38 cell model, qPCR of cccDNA, core particle DNA and supernatant HBV DNA; assay type: cell-based; settings: 20µM, 10µM and 5µM, HepAD38, 96 and 144 hours, Figures 10, 11, 12
Protocol: 2×10^5 HepAD38 cells that were stably expressing HBV with good growth status were seeded in collagen pretreated 6-well plates, and the corresponding concentrations of the test substances were added: final concentration of 1µM for entecavir (ETV) and a final concentration of 20µM, 10µM, and 5µM for amlexanox (AML), respectively. Two groups of controls were also set up, one with solvent only (DMF) and one with antibiotic only (tetracycline). Three replicate wells were set for all groups. After 96 hours and 144 hours of test article addition, 500 µL of cell culture supernatant was used to extract DNA from the supernatant, and the amount of HBV DNA in the supernatant was detected by qPCR. After 144h, cells were harvested and lysed in Lysis buffer A (50 mM Tris-HCl, pH 7.4, 1 mM EDTA, and 1% NP-40). The supernatant and pellet of the lysates were collected, respectively, from which DNA was extracted and quantified by quantitative PCR. Linear DNA was removed by DNA exonuclease (NEB) after DNA extraction from the cell lysate pellet, so only circular DNA (cccDNA) was examined (Figure 10). Viral DNA in the supernatant of cell lysates was defined as core particle DNA (Figure 11).

`CC(C)c1ccc2oc3nc(N)c(C(=O)O)cc3c(=O)c2c1` [amlexanox, Amlexanox] was tested, and the “HBV surface antigen (HBsAg) in serum” value (hepatitis B virus [1]) was “could inhibit HBsAg level in transgenic mice”, the cytotoxicity ([2]; nine kinds of cells, below the concentration of 50 µM) was “no obvious cytotoxicity” and the cytotoxicity ([2]; remaining five cells (other than MKN45, HCT-116, MCF7, Huh7), 100 µM) was “no significant cytotoxicity”. For the same molecule, the “concentration of HBsAg in serum” value (hepatitis B virus [3]) was “significantly reduced surface antigen (HBsAg) levels”, the “HBV core antigen (HBeAg) concentration in culture supernatant” value (hepatitis B virus [4]) was “significantly reduce HBsAg level and core antigen level” and the “concentration of HBeAg in peripheral blood” value ([5]; 16 mg/kg/time) was “still effective”. For the same molecule, the “concentration of HBeAg in peripheral blood, dose-response relationship” value ([5]; 4, 8 and 16 mg/kg/time) was “its ability to inhibit hepatitis B virus is enhanced in a mouse model of venous hypertension”, the “concentration of HBsAg in peripheral blood” value (hepatitis B virus [6]; 50 mg/kg/day oral gavage, 9th day after infection, Figure 3) was “reduced HBsAg levels in a mouse model of venous hypertension, and its effect is better than that of lamivudine” and the “dose of significant effect (inhibition of hepatitis B virus, HBsAg)” value (hepatitis B virus [6]; oral gavage, 9th day after infection, Figure 7) was 10 to 50 mg/kg. For the same molecule, the “concentration of HBsAg in peripheral blood, dose-response relationship” value (hepatitis B virus [6]; oral gavage, daily dose as in Figure 7, 9th day after infection) was “its ability to inhibit the hepatitis B virus in the venous hypertension mouse model is enhanced”, the “HBV genomic DNA in the livers of the mice” value (hepatitis B virus [7]) was “can significantly inhibit the load of viral DNA, and its effect is not lower than that of clinically used nucleotide-like drugs lamivudine and entecavir” and the “HBV DNA (cccDNA, core particle DNA, viral DNA in cell culture supernatant)” value (hepatitis B virus [8]) was “significantly inhibits hepatitis B virus replication in the HepAD38 cell model”.
